Results published in a melting point compilation (Tetko et al.; mined from patent text by program, amines drawn as free bases though some values may be those of a salt).

Row | SMILES | melting point
1 | CCOC(=O)c1cn2c(ccc3cc(OC)ccc32)n1 | 119 to 121 °C
2 | Cc1ccnc(NC(=O)Nc2cccc3c2C2CCCCN2C3=O)c1 (stereo not given) | 178 to 180 °C
3 | Cc1coc(C)c1N(C)c1cc(Br)cc2c1nc(C)n2C | 207 to 208 °C
4 | CCOC(=O)c1cnc2c(c(C)nc3cc(C)nn32)c1N1CCN(C)CC1 | 158 to 159 °C
5 | COc1ccc(/C=C/C(=O)CC(=O)/C=C/c2ccc(O)cc2Cl)cc1O | 120 to 130 °C
6 | CC1(c2ccccc2)Cc2cc(OCC#N)c(Cl)c(Cl)c2C1=O (stereo not given) | 163 to 165 °C
7 | FC(F)(F)Oc1ccc(-n2cc(Br)cn2)cc1 | 63 to 65 °C
8 | Clc1ccc2nnnn2n1 | 104 to 105 °C
9 | COC(=O)c1cccc2[nH]c(=O)n(Cc3ccc(-c4ccccc4C#N)cc3)c12 | 250 to 253 °C
10 | O=C(O)Cc1ccc(OCc2ccccc2)c(OCCc2ccccc2)c1 | 110 to 112 °C
11 | Cc1cc(NS(=O)(=O)c2ccc(NCNc3ccc(S(=O)(=O)Nc4cc(C)on4)cc3)cc2)no1 | 180 to 188 °C
12 | CN1CCN(c2cc(Cl)cc3c2c(=O)n(Cc2ccc(N)cc2)c(=O)n3Cc2ccccc2)CC1 | 93 to 96 °C
13 | CC1=NN=C(C=Cc2ccc(C(F)(F)F)cc2)c2cc3c(cc2C1)OCO3 | 188 to 191 °C
14 | CCCCOc1ccc2c(c1)CCC(C(=O)OC)C2O (stereo not given) | 81 to 83 °C
15 | CC(=NOc1ccc(F)cc1)c1ccc(C(F)(F)F)cc1NS(=O)(=O)C(F)(F)F | 95 to 96 °C
16 | Cn1nc(C(=O)OCC23CCCN(CC2)C3)c2ccccc21 (stereo not given) | 93 to 95 °C
17 | COC(=O)CN(C)CCNC(=O)c1nc(Cl)c(N)nc1N | 132 to 134 °C
18 | Cc1nc(CS(=O)(=O)c2cccs2)sc1-c1ccnc(Nc2ccc(N3CCOCC3)cc2)n1 | 187 to 189 °C
19 | CCOC(=O)C1=C[C@@H]2OC(C)=N[C@@H]2[C@@H](NC(=O)OC(C)(C)C)C1 | 45 to 49 °C
20 | O=C(N[C@@H](Cc1ccccc1)[C@@H](O)[C@H](O)[C@H](Cc1ccccc1)NC(=O)OCc1cccnc1)OCc1cccnc1 | 180 to 186 °C
21 | NC(=O)N1CCN(CC(O)COc2ccc(Cl)cc2)CC1 (stereo not given) | 193 to 196 °C
22 | Nc1c(-c2ccc(C(F)(F)F)cc2F)nnn1Cc1ccc(S(N)(=O)=O)cc1 | 180 to 181 °C
23 | COc1ccc(NC(=O)c2ccc([N+](=O)[O-])c(C)c2)cc1 | 168 to 169 °C
24 | CCCCCCCCCCCCCC=Cc1cc(C(=O)O)c[nH]1 | 90 to 96 °C
25 | O=Cc1ccc(OCC2CN(Cc3ccccc3)c3ccccc3O2)cc1 (stereo not given) | 92 to 94 °C

Row | SMILES | melting point
26 | Cc1ccc(S(=O)(=O)OC[C@H]2COc3ccc([N+](=O)[O-])c(CC(=O)O)c3O2)cc1 | 158 to 159 °C
27 | CCCCOc1cccn2c(=O)cc(C)nc12 | 93 to 94 °C
28 | N#Cc1ccc(-c2cc3c(O)ncnc3[nH]2)cc1 | > 410 °C
29 | CCCCc1nc2c(N)nc3ccc(OCc4ccccc4)cc3c2n1CCCCN | 161 to 164 °C
30 | CCNC(=O)NCCCNn1c(COCC)nc2c(N)nc3ccccc3c21 | 138 to 141 °C
31 | COCCOc1ccc(CCCOC(=O)NS(=O)(=O)NCCc2ccccn2)c(Oc2ncc(C(F)(F)F)cc2Cl)c1 | 91 to 93 °C
32 | Cc1ccc(-c2nc(COc3ccc(CCCCn4ccnc4)cc3)co2)s1 | 82 to 83 °C
33 | O=C(Nc1cc(Cl)cc(Cl)c1O)C(=O)Nc1ncc(Cl)cc1Cl | 245 °C
34 | O=[N+]([O-])c1ccc2ncnc(Nc3cc(Cl)c(Cl)cc3F)c2c1 | 270 to 271 °C
35 | O=c1c2ccc3[nH]cc(CCNS(=O)(=O)c4ccccc4)c3c2ccn1Cc1ccccc1 | 205 to 206 °C
36 | CCOC(=O)C(=O)Nc1ccc(Cl)cc1[N+](=O)[O-] | 156 to 157 °C
37 | COC(=O)CCN1CCC(=C2c3ccn(C)c3CCn3ncnc32)CC1 | 139 °C
38 | Cc1cc(C)c(/C=C2\C(=O)N(CN3CCCC3)c3ccccc32)[nH]1 | 129 to 132 °C
39 | Nc1ccc(N2CCN(C(C(=O)NCC(F)(F)F)c3ccccc3)CC2)cc1 (stereo not given) | 136 °C
40 | NC(=O)N1CCCC(CC(=O)c2ccc(F)cc2)C1 (stereo not given) | 136 to 138 °C
41 | NS(=O)(=O)c1ccc(-c2c(-c3ccccc3)noc2COCC(F)(F)C(F)(F)CO[N+](=O)[O-])cc1 | 46 °C
42 | COc1ccc(CC(Br)C(N)=O)cc1C(=O)NCc1ccc(C(F)(F)F)cc1 (stereo not given) | 192 to 193 °C
43 | COCSc1ccc2c(c1)CC[C@@H]1[C@@H]2CC[C@]2(C)C(=O)CC[C@@H]12 | 55 °C
44 | CCCn1c(=O)c2c(NC)n[nH]c2n(CCc2ccccc2)c1=O | 256 to 258 °C
45 | CCCCS(=O)(=O)N(C(=O)OC(C)(C)C)c1cc(O)ccc1OCc1ccccc1 | 131 to 133 °C
46 | O=C(OO)c1cccc(Cl)c1 | 127 to 129 °C
47 | COc1ccc2c(c1)CCC1C2CCC2(C)C(=NN(C)C)C(C)CC12 (stereo not given) | 122 to 124 °C
48 | COC(=O)c1ncn2c3cccc(Cl)c3c(=O)n(C)c12 | 210 to 220 °C
49 | c1ccc(COC[C@H]2OC(Sc3ccccc3)[C@H](OCc3ccccc3)[C@@H](OCc3ccccc3)[C@@H]2OCc2ccccc2)cc1 (stereo not given in full) | 85 to 86 °C
50 | O=C(O)CCCCCCn1c(-c2ccccc2)nc(-c2ccccc2)c1-c1ccccc1 | 149 to 150 °C

Row | SMILES | melting point
51 | CC(=O)OCCn1nc(-c2cc(C(C)(C)C)c(O)c(C(C)(C)C)c2)c2ccc(C)nc21 | 102 to 103 °C
52 | CC(C)Cc1c(C(=O)O)c(C(F)F)nc(C(F)(F)F)c1C(C#N)=C1CCCO1 | 192 to 193 °C
53 | CN1CC2c3ccccc3Cc3ncccc3N2C1 (stereo not given) | 127 to 129 °C
54 | O=[N+]([O-])c1ccc2oc(-c3cccs3)nc2c1 | 186 to 188 °C
55 | CC(=O)Nc1nc(CCc2ccc(NC(NC(=O)OC(C)(C)C)NC(=O)OC(C)(C)C)cc2)c(Cl)s1 | 220 to 221 °C
56 | CCCCCN(CCC12CC3CC(CC(C3)C1)C2)C(=O)NCCCc1cccnc1 | 99.9 to 105 °C
57 | Nc1nc(SCc2ccccc2)nn1-c1nnc(-c2ccccc2O)s1 | 198 to 201 °C
58 | Cc1ccc(S(=O)(=O)N2CCCC(CSc3ccccc3)C2)cc1 (stereo not given) | 66.7 °C
59 | O=C(O)C1=Cc2cc(C3CCCCC3)ccc2CC1 | 179 to 180 °C
60 | COC(=O)c1cn(Cc2ccc(OCc3ccccc3)cc2)cc1-c1ccccc1 | 97 to 98 °C
61 | CC(=O)Nc1ccc(C2COC(=O)O2)cn1 (stereo not given) | 135 to 139 °C
62 | CC12CCC(C1)C1(C)Oc3ccc(Br)cc3C21C (stereo not given) | 120 °C
63 | CCOC(=O)C1(c2ccccc2)CCN(CCO)CC1 | 91.5 to 93 °C
64 | Cc1c(C)n2nnnc2c2nc(C)n(CCNS(C)(=O)=O)c12 | > 250 °C
65 | CC(=O)N1C(=CC(C#N)=C2OC(CO)CN2C)C(=O)c2ccccc21 (stereo not given) | 218 to 220 °C
66 | CNC(=O)c1cnn(-c2ccccc2)c1C#N | 203 to 205 °C
67 | CC(C)N(CCC(c1ccccc1)c1cc(CO)ccc1OC(=O)c1ccc([N+](=O)[O-])cc1)C(C)C (stereo not given) | 124 °C
68 | CC(=O)OCCn1nc(O)c2[nH]c3cc(Cl)ccc3c(=O)c2c1=O | 307 to 309 °C
69 | CC12CCC(C(=O)O)=CC1=CCC1C2CCC2(C)C(C(=O)Cc3ccccc3)CCC12 (stereo not given) | 258 °C
70 | COc1ccc(-c2cc3c(O)ncnc3[nH]2)cc1 | > 300 °C
71 | CC(=O)Nc1sc2c(c1C(=O)c1ccco1)CCCC2 | 126 to 127 °C
72 | Cc1ccc(C2COc3c(C)c(C)c(N)c(C)c32)cc1 (stereo not given) | 121 to 122 °C
73 | Cc1c(C)c(N2C(=O)c3cc(Cl)c(Cl)cc3C2=O)c(C)c2c1OC(C)(C)C2c1ccc(C(C)C)cc1 (stereo not given) | 237 to 239 °C
74 | CC(C)N1CC(=O)N(C(C)C)CC1=O | 177 to 180 °C
75 | O=C(Oc1ccc([N+](=O)[O-])cc1)C(O)C(O)C(=O)Oc1ccc([N+](=O)[O-])cc1 (stereo not given) | 163 to 164 °C

Row | SMILES | melting point
76 | Cc1nc2c(C(F)(F)F)cccc2c(O)c1C(=O)Nc1nccs1 | 267 °C
77 | CC1(C)C2=C(Cl)C(=O)C(Cl)=CC2=Nc2ccc(O)cc21 | < 250 °C
78 | O=C(CN1CCC(Oc2ccccc2)CC1)Nc1ccc2c(c1)OCC(=O)N2 | 206 to 208 °C
79 | Nc1ncc(CCC2CCCCC2)s1 | 98 to 99 °C
80 | COc1ccc(NS(=O)(=O)c2cc3cc(Cl)ccc3oc2=O)cc1 | 175 to 177 °C
81 | CN(C)c1nnc(-c2ccc3ncn(-c4ccc(OC(F)(F)F)cc4)c3c2)o1 | 224 to 225 °C
82 | Cc1cc2c(cc1-c1ccc(C=CC(=O)O)s1)C(C)(C)CCC2(C)C | 175 to 177 °C
83 | CC(=O)Nc1cccc(-c2ccc3nc(-c4cccnc4N)n(-c4ccc(CNC(=O)c5cccc(F)c5)cc4)c3n2)c1 | 174 to 187 °C
84 | CCOc1cc(CF)nc(N)n1 | 85 to 87 °C
85 | O=C(NCCO)c1cccc(-c2ccnc3cc(Cc4cccc(C(F)(F)F)c4)oc23)c1 | 158 to 159 °C
86 | Cc1ccc(OCc2c(F)cccc2Cl)c(N)n1 | 108 to 109 °C
87 | COCC(=O)Nc1c(C(O)(C(F)(F)F)C(F)(F)F)ccc2ccccc12 | 120 to 121 °C
88 | COC(=O)c1ccc([N+](=O)[O-])c(OC(C)C)c1 | 46 to 48 °C
89 | CN(C)C=NS(=O)(=O)c1cc(CCNC(=O)C(F)(F)F)ccc1I | 155 to 156 °C
90 | Nc1ccc(CCCc2ccc(Nc3ccccc3C(=O)O)cc2)cc1 | 110 to 112 °C
91 | COC(=O)Cc1cccc2c1NC(=O)C2 | 156 to 157 °C
92 | O=C(c1ccccc1)N1CC2CSCC(C2)C1 | 95 to 96 °C
93 | COC(=O)CCc1[nH]c(Cc2ccc(OCc3nc(-c4ccccc4)oc3C)cc2)nc1-c1ccccc1 | 128 to 129 °C
94 | Cc1nc[nH]c1CSCCCNC(=N)N | 156 to 158 °C
95 | COc1ccc(C(=O)NCCCCCCCNC(=O)c2ccc(OC)c(OC)c2)cc1OC | 160 to 161 °C
96 | O=C(NC(=O)c1ccccc1Cl)Nc1ccc(-n2cccc2)c(Cl)c1 | 169 to 170 °C
97 | COc1cc2oc(=O)c(CCCl)c(C)c2cc1OC(C)C | 125 to 127 °C
98 | CCOc1ccc(-c2nc(-c3ccc(O)c(C(=O)O)n3)cs2)cc1OCC | 161 to 162 °C
99 | Cc1cn(-c2cc(Br)c(N)c(C(F)(F)F)c2)c(C)n1 | 149 °C
100 | COC(=O)c1nc2cc(Cl)c3cccnc3c2o1 | 214 to 215 °C
